This is an account of results in US20110033393A1, “Hydrazone Compounds and Their Use” (priority 2009, published 2011).

The IC50 is the concentration needed to halve the response being measured.

The target in this experiment is T1, human TRPM5 ion channel (Homo sapiens, UniProt Q9NZQ8).
T1 sequence (Q9NZQ8 1-1165): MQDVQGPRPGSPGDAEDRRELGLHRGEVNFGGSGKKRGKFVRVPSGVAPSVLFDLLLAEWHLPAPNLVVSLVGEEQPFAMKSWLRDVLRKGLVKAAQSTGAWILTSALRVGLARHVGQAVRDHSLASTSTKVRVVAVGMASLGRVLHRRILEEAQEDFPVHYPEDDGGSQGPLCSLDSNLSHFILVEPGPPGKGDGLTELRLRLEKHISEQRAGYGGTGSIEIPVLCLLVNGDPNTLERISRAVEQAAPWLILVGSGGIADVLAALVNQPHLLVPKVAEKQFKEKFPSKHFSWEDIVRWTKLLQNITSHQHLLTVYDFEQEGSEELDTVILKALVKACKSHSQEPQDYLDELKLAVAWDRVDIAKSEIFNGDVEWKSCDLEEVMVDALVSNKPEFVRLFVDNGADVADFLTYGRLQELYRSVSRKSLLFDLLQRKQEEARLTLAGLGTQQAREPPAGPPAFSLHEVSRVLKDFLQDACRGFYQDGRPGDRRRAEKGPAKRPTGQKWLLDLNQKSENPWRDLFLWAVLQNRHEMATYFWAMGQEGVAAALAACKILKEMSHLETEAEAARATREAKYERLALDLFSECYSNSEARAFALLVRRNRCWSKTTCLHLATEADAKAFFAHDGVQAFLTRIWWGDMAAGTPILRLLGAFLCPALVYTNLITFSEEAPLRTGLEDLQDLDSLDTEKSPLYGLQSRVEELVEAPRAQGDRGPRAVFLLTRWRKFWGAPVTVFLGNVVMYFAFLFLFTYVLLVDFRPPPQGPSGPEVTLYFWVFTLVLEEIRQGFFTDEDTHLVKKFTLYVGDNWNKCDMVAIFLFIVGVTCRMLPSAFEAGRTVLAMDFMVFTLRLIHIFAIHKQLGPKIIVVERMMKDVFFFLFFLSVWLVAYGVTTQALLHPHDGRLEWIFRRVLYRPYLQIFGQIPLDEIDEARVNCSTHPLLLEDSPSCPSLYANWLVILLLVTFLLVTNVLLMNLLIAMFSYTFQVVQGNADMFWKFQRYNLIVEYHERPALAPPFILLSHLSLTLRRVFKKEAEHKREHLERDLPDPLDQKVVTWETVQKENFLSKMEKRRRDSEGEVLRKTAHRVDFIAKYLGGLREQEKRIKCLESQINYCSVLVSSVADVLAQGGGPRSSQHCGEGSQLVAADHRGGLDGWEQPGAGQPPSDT
As to the kind of experiment: FLIPR-based assay for membrane potential and calcium mobilization (TRPM5 inhibiting activity). The format is cell-based. The note with it: live cells, 30° C., read-out: hTrpM5 IC50. A digest of the protocol:
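Live cells expressing human TRPM5, assayed at 30 °C by FLIPR readout of membrane potential and calcium mobilization. Ten serial 2- or 3-fold dilutions from no more than 100 μM. IC50 derived by curve fitting of concentration-effect data.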
In general terms: Calcium flux is commonly read through the fluorescence of an indicator in the cells.

For the compound `Cc1cc(/C=N/NC(=O)C2CC2c2ccccc2)cc2cccnc12` (racemic) [Example 10, trans-N′-((8-Methylquinolin-6-yl)methylene)-2-phenylcyclopropanecarbohydrazide], the concentration for half-maximal inhibition (IC50) was determined as 420 nM.
